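Cells were grown in 96-well plates and exposed to each compound for 48 hours at five concentrations; endpoints were interpolated linearly between bracketing concentrations, or set to the highest concentration if not reached. GI50 = concentration required for 50% inhibition of growth.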 Calls of active or inactive are those of the source. Rule as the data show it: active = GI50 up to about 1.1 µM and inactive = higher.
Experiments:
Experiment in all cases: DTP human tumour cell line panel, 48 h
A498 = system: A498
CAKI-1 = system: CAKI-1
CCRF-CEM = system: CCRF-CEM
COLO 205 = system: COLO 205
HOP-92 = system: HOP-92
HT-29 = system: HT-29
IGROV-1 = system: IGROV-1
KM12 = system: KM12
LOX IMVI = system: LOX IMVI
M14 = system: M14
M19-MEL = system: M19-MEL
NCI-H226 = system: NCI-H226
OVCAR-3 = system: OVCAR-3
RPMI-8226 = system: RPMI-8226
SF-539 = system: SF-539
SK-MEL-28 = system: SK-MEL-28
SR = system: SR
TK-10 = system: TK-10
U-251 = system: U-251
MDA-MB-231 = system: MDA-MB-231

Measured: GI50

CCN(CC)CCNC(=O)c1ccccc1NC(=O)C(=O)Nc1ccccc1C(=O)NCCN(CC)CC
inactive: A498 > 100 µM | CAKI-1 > 100 µM | CCRF-CEM 30.3 µM | COLO 205 14.1 µM | HOP-92 31.4 µM | HT-29 34.6 µM | IGROV-1 > 100 µM | KM12 45.6 µM | LOX IMVI 24.9 µM | M14 19.1 µM | M19-MEL 22.8 µM | NCI-H226 > 100 µM | OVCAR-3 62.7 µM | RPMI-8226 > 100 µM | SF-539 24.1 µM | SK-MEL-28 45.4 µM | SR 21.8 µM | TK-10 > 100 µM | U-251 44.6 µM

COc1ccc(N2C(=O)[C@H]3CC(C)c4c([nH]c5ccccc45)[C@H]3C2=O)cc1 (stereo partly drawn)
inactive: A498 8.15 µM | CAKI-1 3.08 µM | CCRF-CEM 2.49 µM | COLO 205 2.5 µM | HOP-92 4.65 µM | HT-29 2.92 µM | IGROV-1 4.41 µM | KM12 2.77 µM | LOX IMVI 4.6 µM | M14 2.48 µM | M19-MEL 2.13 µM | MDA-MB-231 6.35 µM | NCI-H226 5.66 µM | OVCAR-3 1.87 µM | RPMI-8226 3.48 µM | SF-539 2.77 µM | SK-MEL-28 4.82 µM | SR 2.15 µM | TK-10 9.86 µM | U-251 3.15 µM

CC(C)(C)C1CCC(=O)C(C(O)CC2CC(=O)N(c3ccccc3)C(=O)C2)C1 (stereo not drawn)
inactive: A498 > 100 µM | CAKI-1 > 100 µM | CCRF-CEM 53.1 µM | COLO 205 > 100 µM | HOP-92 > 100 µM | HT-29 > 100 µM | IGROV-1 > 100 µM | KM12 > 100 µM | LOX IMVI 49.5 µM | M14 > 100 µM | M19-MEL > 100 µM | NCI-H226 > 100 µM | OVCAR-3 > 100 µM | RPMI-8226 73.1 µM | SF-539 > 100 µM | SK-MEL-28 > 100 µM | SR 81.3 µM | TK-10 > 100 µM | U-251 80.2 µM

Source: ChEMBL document CHEMBL1201862, “PubChem BioAssay data set” (2004)
